Assay results: patent US8513266B2, “Methods of treating cancer using pyridopyrimidinone inhibitors of PI3K alpha” (priority 2007, dated 2013)

Assays:
Assay type in all cases: in vivo
[1] = tested on: PC-3 human prostate adenocarcinoma cells
Protocol: (§1) Female and male athymic nude mice (NCr) 5-8 weeks of age and weighing approximately 20-25 g were used in the following model. Prior to initiation of a study, the animals were allowed to acclimate for a minimum of 48 h. During these studies, animals were provided food and water ad libitum and housed in a room conditioned at 70-75° F. and 60% relative humidity. A 12 h light and 12 h dark cycle was maintained with automatic timers. All animals were examined daily for compound-induced or tumor-related deaths.
PC-3 human prostate adenocarcinoma cells were cultured in vitro in DMEM (Mediatech) supplemented with 20% Fetal Bovine Serum (Hyclone), Penicillin-Streptomycin and non-essential amino acids at 37° C. in a humidified 5% CO2 atmosphere. […] A transponder was implanted in each mouse for identification, and animals were monitored daily for clinical symptoms and survival. Body weights were recorded daily. […]
(§2) For subcutaneous or intradermal tumors, the mean tumor weight of each animal in the respective control and treatment groups was determined twice weekly during the study. Tumor weight (TW) was determined by measuring perpendicular diameters with a caliper, using the following formula: tumor weight (mg)=[tumor volume=length (mm)×width^2 (mm^2)]/2
(§3) Percent inhibition of tumor growth (TGI) is determined with the following formula: […]

[2] = tested on: MDA-MB-468 human breast adenocarcinoma cells; conditions: MDA-MB-468 xenograft; erlotinib 100 mg/kg qd oral; Compound A 100 mg/kg q2d oral; combination of the two
Protocol: Female and male athymic nude mice (NCr) 5-8 weeks of age and weighing approximately 20-25 g were used in the following model. Prior to initiation of a study, the animals were allowed to acclimate for a minimum of 48 h. During these studies, animals were provided food and water ad libitum and housed in a room conditioned at 70-75° F. and 60% relative humidity. A 12 h light and 12 h dark cycle was maintained with automatic timers. All animals were examined daily for compound-induced or tumor-related deaths. […]
as §2
Percent inhibition of tumor growth (TGI) is determined with the following formula:
[formula] • where X0=average TW of all tumors on group day • Xf=TW of treated group on Day f • Yf=TW of vehicle control group on Day f If tumors regress below their starting sizes, then the percent tumor regression is determined with the following formula:
[formula] Tumor size is calculated individually for each tumor to obtain a mean±SEM value for each experimental group. […]

[3] = tested on: MCF7 human mammary adenocarcinoma cells; experiment: MCF7 breast cancer xenograft model; conditions: MCF7 tumors at end of study, 30 mg/kg qd each agent, alone or combined
Protocol: as §1
MCF7 human mammary adenocarcinoma cells were cultured in vitro in DMEM (Cellgro) supplemented with 10% Fetal Bovine Serum (Cellgro), Penicillin-Streptomycin and non-essential amino acids at 37° C. in a humidified 5% CO2 atmosphere. […] A transponder was implanted into each mouse for identification and data tracking, and animals were monitored daily for clinical symptoms and survival. During the dosing period, the tumor weight of each animal was determined twice weekly and the body weight of each animal was measured daily. […]
For subcutaneous or intradermal tumors, the mean tumor weight of each animal in the respective control and treatment groups was determined twice weekly during the study. Tumor weight (TW) was determined by measuring perpendicular diameters with a caliper, using the following formula: tumor weight (mg)=[tumor volume=length (mm)×width^2 (mm^2)]/2 […]

[4] = tested on: A549 human lung carcinoma cells; experiment: A549 non-small cell lung cancer xenograft model; conditions: Compound A 30 mg/kg qd
Protocol: as §1
A549 human lung carcinoma cells were cultured in vitro in DMEM (Mediatech) supplemented with 10% Fetal Bovine Serum (Hyclone), PenicilliN-Streptomycin and non-essential amino acids at 37° C. in a humidified 5% CO2 atmosphere. […] A transponder was implanted in each mouse for identification, and animals were monitored daily for clinical symptoms and survival. Body weights were recorded daily. […]
as §2, §3

[5] = tested on: Calu-6 human lung anaplastic carcinoma cells; experiment: Calu-6 non-small cell lung cancer xenograft model; conditions: Calu-6 xenograft, single agents; Compound A 100 mg/kg q2d or 30 mg/kg bid oral; carboplatin 50 mg/kg i.v. q4d
Protocol: as §1
Calu-6 human lung anaplastic carcinoma cells were cultured in vitro in DMEM (Mediatech) supplemented with 10% Fetal Bovine Serum (Hyclone), Penicillin-Streptomycin and non-essential amino acids at 37° C. in a humidified, 5% CO2 atmosphere. […] A transponder was implanted in each mouse for identification, and animals were monitored daily for clinical symptoms and survival. Body weights were recorded daily. […]
as §2, §3

In the case of `CC(=O)O[C@H]1C(=O)[C@@]2(C)[C@H]([C@H](OC(=O)c3ccccc3)[C@]3(O)C[C@H](OC(=O)[C@H](O)[C@@H](NC(=O)c4ccccc4)c4ccccc4)C(C)=C1C3(C)C)[C@]1(OC(C)=O)CO[C@@H]1C[C@@H]2O` [taxol, Paclitaxel], the “tumor growth inhibition (FIG. 1)” value ([1]; PC-3 xenograft, Compound A 100 mg/kg q2d or 30 mg/kg bid oral, taxol 7.5 mg/kg i.v. twice weekly, combination of either dose of Compound A with taxol) is reported as “Comparable tumor growth inhibition”.

In the case of `C#Cc1cccc(Nc2ncnc3cc(OCCOC)c(OCCOC)cc23)c1` [erlotinib], the “tumor growth inhibition (FIG. 5)” value [2] is reported as “significant but incomplete tumor growth inhibition”.

For `COc1cc2c(Nc3ccc(Cl)c(Cl)c3F)ncnc2cc1OC[C@@H]1C[C@@H]2CN(C)C[C@@H]2C1` [Compound B, N-(3,4-dichloro-2-fluorophenyl)-7-({[(3aR,5r,6aS)-2-methyloctahydrocyclopenta-[c]pyrrol-5-yl]methyl}oxy)-6-(methyloxy)quinazolin-4-amine], the “induction of TUNEL-positive (apoptotic) cells” value ([3]; compared to vehicle control) was “did not result in a significant induction”, the “decrease in CD31-positive tumor vessels (microvessel density, MVD)” value [3] was 31% and the “tumor growth inhibition (TGI) (FIG. 4a)” value ([4]; Compound B 30 mg/kg qd oral for 18 days, combination: Compound B followed by Compound A after about six hours) was 80%. The dose skipping ([4]; Compound B 30 mg/kg qd, alone or co-administered) was “no dose omission”.

In the case of `N.N.O=C([O-])C1(C(=O)[O-])CCC1.[Pt+2]` [carboplatin], the “tumor growth inhibition (FIG. 3)” value [5] is reported as “Significant tumor growth inhibition”.

In the case of `CO[C@H]1C[C@@H]2CC[C@@H](C)[C@@](O)(O2)C(=O)C(=O)N2CCCC[C@H]2C(=O)O[C@H]([C@H](C)C[C@@H]2CC[C@@H](O)[C@H](OC)C2)CC(=O)[C@H](C)/C=C(\C)[C@@H](O)[C@@H](OC)C(=O)[C@H](C)C[C@H](C)/C=C/C=C/C=C/1C` [rapamycin, Rapamycin], the “decrease in the fraction of proliferating cells (Ki67) (FIG. 6)” value ([1]; PC-3 tumors resected at end of efficacy study, Compound A 100 mg/kg q2d, rapamycin, monotherapy or combined) is reported as 77%.
